A word on the IC50: it is the concentration needed to halve the response being measured. Low values mean greater potency, high ones weaker potency. By half-life is commonly meant how long it takes for the measured level to halve.

The nature of data set [1]: Kinetic solubility by nephelometry. The data set is classed as physicochemical. As to conditions: concentration range; for Sol2.0: 0.01 M HCl (approx. pH 2.0); for Sol6.5: pH 6.5 phosphate buffer.
Data set [2] is described as follows: Plasma exposure after single oral dose in non-infected mice. The data set is classed as in vivo, male Swiss outbred mice. As to conditions: single 100 mg/kg oral dose; for plasma concentration by ~18 h post-dose / plasma concentration maintained over the 48 h sampling period: non-infected mice; for plasma concentration maintained over the 48 h sampling period: up to 48 h post-dose; for systemic exposure (AUC to last measured concentration) relative to 1: fold higher than 1.

The nature of data set [3]: Cytotoxicity, growth inhibition of HEK293 cells. The data set is classed as cell-based. As to conditions: human, HEK293 cells (kidney).
The nature of data set [4]: Cytotoxicity, growth inhibition of HC-04 cells. The data set is classed as cell-based. As to conditions: human, HC-04 cells (hepatocyte).
Data set [5] is described as follows: Cytotoxicity, growth inhibition of U-20S cells. In kind it is cell-based. To be noted: human.
The conditions of data set [6]: cited from earlier work.
The subject of another data set is ex vivo S. mansoni. To be noted: cited from earlier work.
The conditions of data set [7]: 46.3 mg/kg oral dose; cited from earlier work.
A further data set has as its system S. mansoni. As to conditions: 400 mg/kg dose; cited from earlier work.

Structures are written as SMILES. Bounds are passed on as bounds.

In data set [1], `Cc1cc(NC(=O)Nc2ccc(F)c(C(F)(F)F)c2)on1` [Compd 10] yielded a Sol2.0 of 12.5 to 25 µg/mL and a Sol6.5 of 6.3 to 12.5 µg/mL.

Take `N#Cc1ccc(NC(=O)Nc2ccnc(C(F)(F)F)c2)cc1` [Compd 19]: the “plasma concentration by ~18 h post-dose” value in data set [2] is “below 1 μM”. The IC50 in data set [3], in data set [4] and in data set [5] was more than 100 µM each time. Besides, the Sol2.0 in data set [1] is given as 1.6–3.1/1.6–3.1 μg/mL. Besides, the Sol6.5 in data set [1] was 1.6–3.1/1.6–3.1 μg/mL.

As for `O=C(Nc1ccc2c(c1)OC(F)(F)O2)Nc1ccc(F)c(C(F)(F)F)c1` [Compd 17], the “plasma concentration maintained over the 48 h sampling period” value in data set [2] is more than 5 µM. For the same molecule, the IC50 in data set [3], in data set [4] and in data set [5] was more than 100 µM in each case. For the same molecule, in [1], the Sol2.0 was <1.6/<1.6 μg/mL. For the same molecule, the Sol6.5 in data set [1] was <1.6/<1.6 μg/mL.

For `O=C(Nc1ccncc1)Nc1ccc(F)c(C(F)(F)F)c1` [Compd 6], in data set [1], the Sol2.0 is 6.3–12.5/6.3–12.5 μg/mL and the Sol6.5 is 6.3–12.5/6.3–12.5 μg/mL.

As for `O=C(Nc1cccnc1)Nc1ccc(F)c(C(F)(F)F)c1` [Compd 7], in [1], the Sol2.0 is 50 to 100 µg/mL and the Sol6.5 fell in the range of 12.5 to 25 µg/mL.

The molecule `O=C(Nc1ccc(C(=O)O)cc1)Nc1ccc(F)c(C(F)(F)F)c1` [Compd 11] came in with a Sol6.5 in data set [1] of 12.5 to 25 µg/mL.

Consider `O=C(Nc1ccnc(C(F)(F)F)c1)Nc1ccc2c(c1)OC(F)(F)O2` [Compd 20], for which, in data set [2], the “plasma concentration maintained over the 48 h sampling period” value was more than 5 µM. Also, the IC50 in [3], in data set [4] and in data set [5] was more than 100 µM throughout. The Sol2.0 in [1] is reported as 3.1–6.3/3.1–6.3 μg/mL. For the same molecule, the Sol6.5 in data set [1] was 3.1–6.3/3.1–6.3 μg/mL.

For the molecule `N#Cc1ccc(NC(=O)Nc2ccc(F)c(C(F)(F)F)c2)cc1` [Compd 15], the “plasma concentration by ~18 h post-dose” value in data set [2] was “below 1 μM”. For the same molecule, the IC50 in data set [3], in data set [4] and in [5] was more than 100 µM each time. The Sol2.0 in data set [1] was <1.6/<1.6 μg/mL. Besides, in data set [1], the Sol6.5 was <1.6/<1.6 μg/mL.

In the case of `O=C(Nc1cnccn1)Nc1cnccn1` [Compd 4], in [1], the Sol2.0 is reported as 6.3–12.5/6.3–12.5 μg/mL and the Sol6.5 was 6.3–12.5/6.3–12.5 μg/mL.

As for `O=C(Nc1ccc(F)c(C(F)(F)F)c1)Nc1ccc(F)c(C(F)(F)F)c1` [Compd 1], in data set [2], the “plasma concentration maintained over the 48 h sampling period” value is on record as “above 1 μM”. Besides, the IC50 in data set [3], in data set [4] and in data set [5] was more than 100 µM each time. For the same molecule, the Sol2.0 in data set [1] is on record as <1.6/<1.6 μg/mL. In addition, the Sol6.5 in data set [1] is listed as <1.6/<1.6 μg/mL.

For `O=C(Nc1ccc(F)c(C(F)(F)F)c1)Nc1cnccn1` [Compd 9], the Sol2.0 in [1] lay in the range of 1.6 to 3.1 µg/mL.

On to `O=C(Nc1ccc2c(c1)OC(F)(F)O2)Nc1ccc2c(c1)OC(F)(F)O2` [Compd 5], for which the “plasma concentration maintained over the 48 h sampling period” value in [2] was more than 5 µM. Besides, the IC50 in data set [3], in data set [4] and in [5] was more than 100 µM throughout. The Sol2.0 in data set [1] is given as <1.6/<1.6 μg/mL. Besides, in data set [1], the Sol6.5 is given as <1.6/<1.6 μg/mL.

For `O=C(Nc1ccc(F)c(C(F)(F)F)c1)Nc1ccccn1` [Compd 8], in data set [1], the Sol2.0 lay within 1.6 to 3.1 µg/mL.

Take `O=C(Nc1ccc(Cl)c(Cl)c1)Nc1ccc(Cl)c(Cl)c1` [MMV665852]: the LogD7.4 in data set [6] is given as 5.2. Also, in the data set on ex vivo S. mansoni, the “in vitro selectivity index” value is listed as 64 fold and the “potency against ex vivo S. mansoni relative to praziquantel (fold less potent)” value is recorded as 4 fold. The half-life in data set [7] is given as 4.7 h.

For `O=C(Nc1ccnc(C(F)(F)F)c1)Nc1ccnc(C(F)(F)F)c1` [Compd 2], in data set [2], the “systemic exposure (AUC to last measured concentration) relative to 1” value is 2–4 fold. For the same molecule, the IC50 in data set [3], in [4] and in data set [5] was more than 100 µM in each case. For the same molecule, the Sol2.0 in data set [1] was 12.5–25/12.5–25 μg/mL. In addition, the Sol6.5 in data set [1] is on record as 12.5–25/12.5–25 μg/mL.

Take `NC(=O)c1ccccc1NC(=O)Nc1ccc(F)c(C(F)(F)F)c1` [Compd 14]: in data set [1], the Sol2.0 is given as 1.6–3.1/1.6–3.1 μg/mL and the Sol6.5 is recorded as 1.6–3.1/1.6–3.1 μg/mL.

Take `O=C(C1CCCCC1)N1CC(=O)N2CCc3ccccc3C2C1` (stereo not shown) [praziquantel]: the worm burden reduction in the data set on S. mansoni is 96%.

On to `NC(=O)c1ccc(NC(=O)Nc2ccc(F)c(C(F)(F)F)c2)cc1` [Compd 13], for which, in data set [1], the Sol2.0 is recorded as 6.3–12.5/6.3–12.5 μg/mL and the Sol6.5 is on record as 6.3–12.5/6.3–12.5 μg/mL.

Consider `O=C(Nc1ccncc1)Nc1ccncc1` [Compd 3], for which the Sol6.5 in data set [1] lay in the range of 12.5 to 25 µg/mL.

Consider `CC(=O)c1ccc(NC(=O)Nc2ccc(F)c(C(F)(F)F)c2)cc1` [Compd 16], for which, in [1], the Sol2.0 is <1.6/<1.6 μg/mL and the Sol6.5 was <1.6/<1.6 μg/mL.

In [1], `O=C(Nc1cccc(C(=O)O)c1)Nc1ccc(F)c(C(F)(F)F)c1` [Compd 12] gave a Sol2.0 of 1.6 to 3.1 µg/mL and a Sol6.5 of 12.5 to 25 µg/mL.

`O=C(Nc1ccnc(C(F)(F)F)c1)Nc1ccc(F)c(C(F)(F)F)c1` [Compd 18]: in [2], the “systemic exposure (AUC to last measured concentration) relative to 1” value is given as 2–4 fold. In addition, the half-inhibitory concentration (IC50) in data set [3], in data set [4] and in data set [5] was more than 100 µM in each case. For the same molecule, in data set [1], the Sol2.0 was 3.1–6.3/3.1–6.3 μg/mL. For the same molecule, the Sol6.5 in data set [1] is listed as 3.1–6.3/3.1–6.3 μg/mL.

(Values after paper PMC6026081 (Bioorganic & medicinal chemistry letters, 2017).)
